Here are results for five molecules from paper PMC9827040 (Blood Advances, 2022).

Assay [1] concerns CCL3 and CCL4 secretion by TMD-8 cells. Briefly: CCL3 & CCL4 ELISA in anti-IgM stimulated TMD-8 cells. The settings on record: 10 nM for 24 hours, 10 μg/mL anti-IgM 8 hours. In kind it is cell-based, human. Background: In an ELISA, binding on a coated surface is turned into a signal by an enzyme label.
Assay [2] concerns WT and mutant BTK (E41K, T474I, C481S, C481R, C481T, C481Y, C481F, L528W). Briefly: WT or mutant BTK transiently expressed in HEK293 cells, immunoblotting. In kind it is cell-based. The following applies: HEK293, 0.1, 1 and 10 μM, 24 hours. (In general: Immunoblotting shows a protein as a band on a membrane.)
Assay [3] deals with CRBN neosubstrates (Ikaros, Helios, Aiolos, GSPT1, CK1-a). Briefly: Immunoblotting of CRBN neosubstrates in hematological cell lines. In kind it is cell-based. The settings on record: 100 nM, 24 or 72 hours.
Assay [4] concerns the target CRBN (Homo sapiens, UniProt Q96SW2). Briefly: CRBN-target-binding assay. The settings on record: HTRF. (TR-FRET usually uses a lanthanide donor and a delayed reading to cut background.)
For assay [5], the system named is TMD-8 BTK C481S cells. Briefly: Cell proliferation, C481S BTK-overexpressing TMD-8 cells. In kind it is cell-based, human.

The structures appear in SMILES notation.

Sequence of CRBN (Q96SW2 whole entry): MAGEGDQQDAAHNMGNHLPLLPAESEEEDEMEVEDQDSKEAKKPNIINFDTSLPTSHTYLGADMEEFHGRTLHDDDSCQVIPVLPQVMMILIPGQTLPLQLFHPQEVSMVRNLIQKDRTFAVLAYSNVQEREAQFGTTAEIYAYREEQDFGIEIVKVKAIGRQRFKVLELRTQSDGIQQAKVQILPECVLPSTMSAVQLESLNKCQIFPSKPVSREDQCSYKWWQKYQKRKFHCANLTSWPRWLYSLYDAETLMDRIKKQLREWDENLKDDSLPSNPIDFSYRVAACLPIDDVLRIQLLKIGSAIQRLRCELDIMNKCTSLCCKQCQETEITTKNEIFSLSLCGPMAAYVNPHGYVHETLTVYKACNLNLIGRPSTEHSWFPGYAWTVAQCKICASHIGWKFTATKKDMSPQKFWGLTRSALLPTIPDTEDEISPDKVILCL

With `Nc1ncnc2c1c(-c1ccc(Oc3ccccc3)cc1)nn2C1CCN(CCOCCOCC(=O)Nc2ccc3c(c2)C(=O)N(C2CCC(=O)NC2=O)C3=O)CC1` (centres unmarked) [MT-802], in assay [1], the “CCL3 or CCL4 secretion” value was “little or no effect”. Also, the “degradation of WT and mutant BTK” value in assay [2] is “can also degrade E41K, C481R, C481Y, C481T, and C481F BTK mutants”.

Take `CC#CC(=O)N1CCC[C@H]1c1nc(-c2ccc(C(=O)Nc3ccccn3)cc2)c2c(N)nccn12` [acalabrutinib]: in assay [1], the “CCL3 or CCL4 secretion” value is listed as “significantly abrogated CCL3 or CCL4 secretion”.

Consider `O=C1CCC(N2C(=O)c3ccccc3C2=O)C(=O)N1` (centres unmarked) [thalidomide], for which, in assay [3], the “change in neosubstrates of U2932 and WSU-WM” value was “No significant change”; the “degradation of CRBN neosubstrates in any of the tested cell lines” value is “did not lead to any significant degradation”.

Turning to `O=C(c1ccc(Oc2ccccc2)cc1Cl)c1c[nH]c2ncnc(N[C@@H]3CC[C@@H](CO)OC3)c12` [ARQ-531], the “CCL3 or CCL4 secretion” value in assay [1] is recorded as “little or no effect”. The “binding to CRBN” value in assay [4] is recorded as “did not bind to CRBN”. Moreover, the “BTK phosphorylation in C481S and E41K BTK mutants” value in assay [2] is on record as “substantially attenuated”.

Consider `C=CC(=O)N1CCC[C@@H](n2nc(-c3ccc(Oc4ccccc4)cc3)c3c(N)ncnc32)C1` [ibrutinib], for which, in assay [1], the “CCL3 or CCL4 secretion” value was “significantly abrogated CCL3 or CCL4 secretion”. For the same molecule, the “binding to CRBN” value in assay [4] is “did not bind to CRBN”. Moreover, the “inhibition of proliferation of C481S BTK-overexpressing TMD-8 cells” value in assay [5] is “resistance”.
